Test results: PubChem BioAssay (NCI)
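All cell lines were grown in 96-well plates and treated with compound for 48 hours. At the TGI there is no net growth.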

Experiments:
Assay in all cases: growth of human tumour cells (NCI), 48 h
786-0 renal = test system: 786-0 renal
A498 renal = test system: A498 renal
A549 NSCLC = test system: A549 NSCLC
ACHN renal = test system: ACHN renal
CAKI-1 renal = test system: CAKI-1 renal
CCRF-CEM leukemia = test system: CCRF-CEM leukemia
COLO 205 colon = test system: COLO 205 colon
DLD-1 colon = test system: DLD-1 colon
DMS 114 small cell lung = test system: DMS 114 small cell lung
DMS 273 small cell lung = test system: DMS 273 small cell lung
EKVX NSCLC = test system: EKVX NSCLC
HCC-2998 colon = test system: HCC-2998 colon
HCT-116 colon = test system: HCT-116 colon
HCT-15 colon = test system: HCT-15 colon
HL-60(TB) leukemia = test system: HL-60(TB) leukemia
HOP-62 NSCLC = test system: HOP-62 NSCLC
HT29 colon = test system: HT29 colon
IGROV1 ovarian = test system: IGROV1 ovarian
K-562 leukemia = test system: K-562 leukemia
KM12 colon = test system: KM12 colon
KM20L2 colon = test system: KM20L2 colon
LOX IMVI melanoma = test system: LOX IMVI melanoma
LXFL 529 NSCLC = test system: LXFL 529 NSCLC
M14 melanoma = test system: M14 melanoma
M19-MEL melanoma = test system: M19-MEL melanoma
MALME-3M melanoma = test system: MALME-3M melanoma
MOLT-4 leukemia = test system: MOLT-4 leukemia
NCI-H226 lung = test system: NCI-H226 lung
NCI-H23 lung = test system: NCI-H23 lung
NCI-H460 lung = test system: NCI-H460 lung
NCI-H522 lung = test system: NCI-H522 lung
OVCAR-3 ovarian = test system: OVCAR-3 ovarian
OVCAR-5 ovarian = test system: OVCAR-5 ovarian
OVCAR-8 ovarian = test system: OVCAR-8 ovarian
RPMI-8226 leukemia = test system: RPMI-8226 leukemia
RXF 393 renal = test system: RXF 393 renal
SF-268 CNS = test system: SF-268 CNS
SF-295 CNS = test system: SF-295 CNS
SF-539 CNS = test system: SF-539 CNS
SK-MEL-2 melanoma = test system: SK-MEL-2 melanoma
SK-MEL-28 melanoma = test system: SK-MEL-28 melanoma
SK-MEL-5 melanoma = test system: SK-MEL-5 melanoma
SK-OV-3 ovarian = test system: SK-OV-3 ovarian
SN12C renal = test system: SN12C renal
SNB-19 CNS = test system: SNB-19 CNS
SNB-75 CNS = test system: SNB-75 CNS
SNB-78 CNS = test system: SNB-78 CNS
SW-620 colon = test system: SW-620 colon
TK-10 renal = test system: TK-10 renal
U251 CNS = test system: U251 CNS
UACC-257 melanoma = test system: UACC-257 melanoma
UACC-62 melanoma = test system: UACC-62 melanoma
UO-31 renal = test system: UO-31 renal
HOP-92 NSCLC = test system: HOP-92 NSCLC
HOP-18 NSCLC = test system: HOP-18 NSCLC
OVCAR-4 ovarian = test system: OVCAR-4 ovarian
SR leukemia = test system: SR leukemia

## CSc1nc(NC2OCC(OC(C)=O)C(OC(C)=O)C2OC(C)=O)c2c(n1)OCC2=O (stereo not drawn)
786-0 renal
  TGI: > 100 µM
A498 renal
  TGI: > 100 µM
A549 NSCLC
  TGI: > 100 µM
ACHN renal
  TGI: > 100 µM
CAKI-1 renal
  TGI: > 100 µM
CCRF-CEM leukemia
  TGI: > 100 µM
COLO 205 colon
  TGI: > 100 µM
DLD-1 colon
  TGI: > 100 µM
DMS 114 small cell lung
  TGI: > 100 µM
DMS 273 small cell lung
  TGI: > 100 µM
EKVX NSCLC
  TGI: > 100 µM
HCC-2998 colon
  TGI: > 100 µM
HCT-116 colon
  TGI: > 100 µM
HCT-15 colon
  TGI: > 100 µM
HL-60(TB) leukemia
  TGI: > 100 µM
HOP-62 NSCLC
  TGI: > 100 µM
HT29 colon
  TGI: > 100 µM
IGROV1 ovarian
  TGI: > 100 µM
K-562 leukemia
  TGI: > 100 µM
KM12 colon
  TGI: > 100 µM
KM20L2 colon
  TGI: > 100 µM
LOX IMVI melanoma
  TGI: > 100 µM
LXFL 529 NSCLC
  TGI: > 100 µM
M14 melanoma
  TGI: > 100 µM
M19-MEL melanoma
  TGI: > 100 µM
MALME-3M melanoma
  TGI: > 100 µM
MOLT-4 leukemia
  TGI: > 100 µM
NCI-H226 lung
  TGI: > 100 µM
NCI-H23 lung
  TGI: > 100 µM
NCI-H460 lung
  TGI: > 100 µM
NCI-H522 lung
  TGI: > 100 µM
OVCAR-3 ovarian
  TGI: > 100 µM
OVCAR-5 ovarian
  TGI: > 100 µM
OVCAR-8 ovarian
  TGI: > 100 µM
RPMI-8226 leukemia
  TGI: > 100 µM
RXF 393 renal
  TGI: > 100 µM
SF-268 CNS
  TGI: > 100 µM
SF-295 CNS
  TGI: > 100 µM
SF-539 CNS
  TGI: > 100 µM
SK-MEL-2 melanoma
  TGI: > 100 µM
SK-MEL-28 melanoma
  TGI: > 100 µM
SK-MEL-5 melanoma
  TGI: > 100 µM
SK-OV-3 ovarian
  TGI: > 100 µM
SN12C renal
  TGI: > 100 µM
SNB-19 CNS
  TGI: > 100 µM
SNB-75 CNS
  TGI: > 100 µM
SNB-78 CNS
  TGI: > 100 µM
SW-620 colon
  TGI: > 100 µM
TK-10 renal
  TGI: > 100 µM
U251 CNS
  TGI: > 100 µM
UACC-257 melanoma
  TGI: > 100 µM
UACC-62 melanoma
  TGI: > 100 µM
UO-31 renal
  TGI: > 100 µM

## CN=c1ssc(=S)n1C(C)C
A549 NSCLC
  TGI: > 100 µM
ACHN renal
  TGI: 95.5 µM
CAKI-1 renal
  TGI: 88.2 µM
CCRF-CEM leukemia
  TGI: 11.8 µM
COLO 205 colon
  TGI: 39.4 µM
DMS 114 small cell lung
  TGI: 20.3 µM
EKVX NSCLC
  TGI: > 100 µM
HCC-2998 colon
  TGI: 27.8 µM
HCT-116 colon
  TGI: > 100 µM
HL-60(TB) leukemia
  TGI: 14.7 µM
HOP-62 NSCLC
  TGI: 43.7 µM
HOP-92 NSCLC
  TGI: 67.1 µM
HT29 colon
  TGI: 16.2 µM
IGROV1 ovarian
  TGI: 46.4 µM
KM12 colon
  TGI: > 100 µM
KM20L2 colon
  TGI: 41.4 µM
LXFL 529 NSCLC
  TGI: 19.9 µM
M14 melanoma
  TGI: 79 µM
M19-MEL melanoma
  TGI: 28.6 µM
MOLT-4 leukemia
  TGI: 51.7 µM
NCI-H226 lung
  TGI: > 100 µM
NCI-H23 lung
  TGI: 80.7 µM
NCI-H460 lung
  TGI: > 100 µM
OVCAR-3 ovarian
  TGI: 35 µM
OVCAR-8 ovarian
  TGI: > 100 µM
RPMI-8226 leukemia
  TGI: 60.3 µM
RXF 393 renal
  TGI: 22.4 µM
SF-268 CNS
  TGI: > 100 µM
SF-295 CNS
  TGI: > 100 µM
SF-539 CNS
  TGI: 86.6 µM
SK-MEL-2 melanoma
  TGI: > 100 µM
SK-MEL-28 melanoma
  TGI: 9.24 µM
SK-MEL-5 melanoma
  TGI: > 100 µM
SNB-19 CNS
  TGI: > 100 µM
SNB-75 CNS
  TGI: 52.3 µM
SW-620 colon
  TGI: 20.6 µM
TK-10 renal
  TGI: > 100 µM
UACC-257 melanoma
  TGI: 53.5 µM
UACC-62 melanoma
  TGI: 31.1 µM
UO-31 renal
  TGI: > 100 µM

## CSc1ccc2c(cc1=O)C(NC(=O)c1ccccc1)CCc1cc(O)c(O)c(O)c1-2 (stereo not drawn)
786-0 renal
  TGI: > 100 µM
A498 renal
  TGI: 56.9 µM
A549 NSCLC
  TGI: > 100 µM
ACHN renal
  TGI: > 100 µM
CAKI-1 renal
  TGI: 88 µM
CCRF-CEM leukemia
  TGI: > 100 µM
COLO 205 colon
  TGI: 73.4 µM
DLD-1 colon
  TGI: 32.7 µM
DMS 114 small cell lung
  TGI: 79.7 µM
DMS 273 small cell lung
  TGI: > 100 µM
EKVX NSCLC
  TGI: > 100 µM
HCC-2998 colon
  TGI: 36.2 µM
HCT-116 colon
  TGI: 36.4 µM
HCT-15 colon
  TGI: 35.3 µM
HL-60(TB) leukemia
  TGI: 38.2 µM
HOP-18 NSCLC
  TGI: > 100 µM
HOP-62 NSCLC
  TGI: 57.8 µM
HOP-92 NSCLC
  TGI: 38.5 µM
HT29 colon
  TGI: > 100 µM
IGROV1 ovarian
  TGI: 66.1 µM
K-562 leukemia
  TGI: 37.2 µM
KM12 colon
  TGI: 27.5 µM
KM20L2 colon
  TGI: 3.62 µM
LOX IMVI melanoma
  TGI: 30 µM
LXFL 529 NSCLC
  TGI: 60.8 µM
M14 melanoma
  TGI: 35.7 µM
M19-MEL melanoma
  TGI: 65 µM
MALME-3M melanoma
  TGI: > 100 µM
MOLT-4 leukemia
  TGI: 54.2 µM
NCI-H226 lung
  TGI: 45.7 µM
NCI-H23 lung
  TGI: 24.7 µM
NCI-H460 lung
  TGI: 40.3 µM
NCI-H522 lung
  TGI: 35.6 µM
OVCAR-3 ovarian
  TGI: 5.91 µM
OVCAR-4 ovarian
  TGI: 33.2 µM
OVCAR-5 ovarian
  TGI: > 100 µM
OVCAR-8 ovarian
  TGI: > 100 µM
RPMI-8226 leukemia
  TGI: 62.6 µM
RXF 393 renal
  TGI: > 100 µM
SF-268 CNS
  TGI: > 100 µM
SF-295 CNS
  TGI: > 100 µM
SF-539 CNS
  TGI: 10.6 µM
SK-MEL-2 melanoma
  TGI: > 100 µM
SK-MEL-28 melanoma
  TGI: > 100 µM
SK-MEL-5 melanoma
  TGI: 12.7 µM
SK-OV-3 ovarian
  TGI: > 100 µM
SN12C renal
  TGI: 44.7 µM
SNB-19 CNS
  TGI: 27.1 µM
SNB-75 CNS
  TGI: 8.42 µM
SNB-78 CNS
  TGI: > 100 µM
SW-620 colon
  TGI: 29.1 µM
TK-10 renal
  TGI: > 100 µM
U251 CNS
  TGI: 26.2 µM
UACC-257 melanoma
  TGI: > 100 µM
UACC-62 melanoma
  TGI: 25.7 µM
UO-31 renal
  TGI: > 100 µM

## CCCCCCCC(=O)OC[C@H](C[As](=O)(O)O)OC(=O)CCCCCCC
786-0 renal
  TGI: 26.7 µM
A498 renal
  TGI: 25.3 µM
A549 NSCLC
  TGI: 18.7 µM
ACHN renal
  TGI: 23.1 µM
CCRF-CEM leukemia
  TGI: 8.8 µM
COLO 205 colon
  TGI: 30 µM
DLD-1 colon
  TGI: 28 µM
DMS 114 small cell lung
  TGI: 19.5 µM
DMS 273 small cell lung
  TGI: 24 µM
EKVX NSCLC
  TGI: 80.7 µM
HCC-2998 colon
  TGI: 27.8 µM
HCT-116 colon
  TGI: 19.2 µM
HCT-15 colon
  TGI: 23.5 µM
HL-60(TB) leukemia
  TGI: 22 µM
HOP-18 NSCLC
  TGI: 49.2 µM
HOP-62 NSCLC
  TGI: 33.1 µM
HOP-92 NSCLC
  TGI: 31.1 µM
HT29 colon
  TGI: 25.2 µM
IGROV1 ovarian
  TGI: 14.4 µM
K-562 leukemia
  TGI: 41.6 µM
KM20L2 colon
  TGI: 30.2 µM
LXFL 529 NSCLC
  TGI: 21.7 µM
M14 melanoma
  TGI: 25.6 µM
M19-MEL melanoma
  TGI: 27.2 µM
MALME-3M melanoma
  TGI: 25.3 µM
MOLT-4 leukemia
  TGI: 14.1 µM
NCI-H226 lung
  TGI: 17.6 µM
NCI-H23 lung
  TGI: 28.2 µM
NCI-H522 lung
  TGI: 4.07 µM
OVCAR-4 ovarian
  TGI: 29.1 µM
OVCAR-8 ovarian
  TGI: 32 µM
RPMI-8226 leukemia
  TGI: 32.4 µM
RXF 393 renal
  TGI: 16 µM
SF-268 CNS
  TGI: 15.6 µM
SF-295 CNS
  TGI: 27.5 µM
SF-539 CNS
  TGI: 18.2 µM
SK-MEL-28 melanoma
  TGI: 26.5 µM
SK-MEL-5 melanoma
  TGI: 26.8 µM
SK-OV-3 ovarian
  TGI: 29 µM
SN12C renal
  TGI: 21.7 µM
SNB-19 CNS
  TGI: 27.3 µM
SNB-75 CNS
  TGI: 32.3 µM
SNB-78 CNS
  TGI: 44.3 µM
SR leukemia
  TGI: 22.8 µM
SW-620 colon
  TGI: 20 µM
U251 CNS
  TGI: 19.1 µM
UACC-257 melanoma
  TGI: 27.2 µM
UACC-62 melanoma
  TGI: 21.3 µM
UO-31 renal
  TGI: 16.5 µM
